Usually melting point stands for the temperature of the solid-liquid transition.

The molecule `CC(C)Oc1ccc(C(=O)N/C(=C\c2ccc(OC(F)(F)F)cc2)C(=O)NCCO)cc1` returned a melting point of 142 to 146 °C. Next, `COc1cccc2c1nc(C(F)F)n2-c1nc(NC2CCN(C(=O)OC(C)(C)C)CC2)c([N+](=O)[O-])c(N2CCOCC2)n1`: 229 to 231 °C; `CC(C)(CNc1ccc(C(=O)CCCC(=O)O)cc1)[N+](=O)[O-]`: 160 to 161 °C. Next, `CC(C)c1ccc(S(=O)(=O)Nc2ccc(Cl)cc2I)cc1`: 149 °C; `CCCCN(CCCC)c1cc(OC)c(C=O)c(OC)c1`: 55 to 56 °C. Next, `O=Cc1c[nH]c2c1ccc1c3ccc(Br)cc3[nH]c12`: greater than 250 °C. Take `Cc1cc(C)c2c(c1C)OCC2c1ccccc1` (stereo unspecified): the melting point lay in the range of 72 to 73 °C. `CCOC(=O)C(C)(C)c1cn2nc(CCCCN3CCN(C(c4ccccc4)c4ccccc4)CC3)ccc2n1` yielded a melting point of 105 to 106 °C.

The molecule `CCC(COC)NC(=O)C(Cc1ccc(OCc2ccccc2)cc1)NC(=O)C(CC(C)C)N(C)CCC(C)C` (stereo unspecified) returned a melting point of 83 to 85 °C. Molecule `COc1ccc(-c2nnc3c4ccccc4c(Nc4ccc(NC(=O)c5ccc(N6CCOCC6)cc5)cc4)nn23)cc1` had a melting point of 313 °C. As for `CC(C(=O)NC1CC(C(=O)O)Nc2cc(Cl)cc(Cl)c21)c1ccccc1` (stereo unspecified), the figure is 210 to 212 °C; as for `CC(C)c1cccc(NC(=O)[C@H](Br)C(C)C)c1O`, 108 to 109 °C; as for `CCCCCC1(C(=O)O)CC2=C(C1)C(C)(C)CCC2(C)C`, 57 to 58 °C. As for `O=C(Nc1cc(Cl)c([N+](=O)[O-])cc1O)C(=O)Nc1cc(Cl)c([N+](=O)[O-])cc1O`, the figure is 302 °C. Next, `CCOC(=O)c1cn2c(cc(Cl)c3ccc(OC)cc32)n1`: 215 to 216 °C; `CCC(CC)Nc1c([N+](=O)[O-])cc(C)c(Cl)c1[N+](=O)[O-]`: 61 to 62.5 °C; `COc1ccc2c(c1)c(Cc1nc(-c3ccc(Br)cc3)cs1)c(C)n2C(=O)c1ccc(Cl)cc1`: 177 to 180 °C.

`COc1ccc(N2C(=O)c3ccc(Cl)cc3C2CC(=O)N2CCC3(CC2)OCCO3)cc1` (stereo unspecified) returned a melting point of 156 to 157 °C. As for `COC(=O)[C@@H]1C[C@H](O[Si](C)(C)C)C(=O)[C@H]2[C@@]1(C)CC[C@H]1C(=O)O[C@H](c3ccoc3)C[C@]21C`, the figure is 197 to 200 °C; as for `O=C(Nc1nccs1)C(CC1CCCC1)c1ccc(-c2cccnc2)cc1` (stereo unspecified), 48 to 52 °C. Next, `C/C=C/C(=O)NC(=O)OC(C)(C)C`: 138 to 139 °C. As for `CC(=O)c1c(C)c(NC(=O)CC(C)(C)C)c(C)c2c1SCC2c1ccc(C(C)C)cc1` (stereo unspecified), the figure is 218 to 219 °C; as for `CN(C)n1c(Br)nn(C(=O)Oc2ccccc2)c1=O`, 136 °C; as for `Cn1cc(S(C)=O)c(=O)c2ccc(Br)cc21` (stereo unspecified), 248 to 249 °C.

In turn, `CS(=O)(=O)c1ccc(-c2cnn(-c3ccc(C(=O)n4cccc4)cc3)c(=O)c2-c2ccc(F)cc2)cc1` displayed a melting point of 229 to 231 °C.

As for `NS(=O)(=O)N1CCC(F)(F)CC1`, the melting point fell in the range of 111 to 112 °C. With `COC(=O)c1c(O)ccnc1C(F)(F)F`, the melting point lay in the range of 78 to 82 °C.

`CC1CCN(c2ccc([N+](=O)[O-])cc2C(=O)c2ccc(Cl)cc2)CC1` displayed a melting point of 136 °C. Next, `O=C(CCCCCCc1ccccc1)c1c(O)c2cccnc2n(-c2ccccc2)c1=O`: 153 to 154 °C; `O=C(NCc1cccc(C(F)(F)F)c1)c1sc2ccccc2c1O`: 139 to 141 °C. Next, `C[C@@H]1CN(Cc2ccccc2)C[C@H]1C(=O)NC1CC1` (relative stereo): 81 to 83 °C; `CCOC(=O)C1(c2ccccc2)CCN(c2ncccn2)CC1`: 119 to 120 °C.

Molecule `O=C(Cn1ccnc1)c1ccc(Cl)c(Cl)c1` had a melting point of 126 to 128 °C. As for `CCOC(=O)c1cccc([N+](=O)[O-])c1NC(=O)OC(C)(C)C`, the figure is 104 to 105 °C; as for `Cn1nc(-c2c(F)cccc2Cl)nc1-c1ccc(Oc2ccc(C(F)(F)F)cn2)cc1Cl`, 139 to 141 °C. On to `COCC1CC(c2ccc3ccccc3c2C#N)=NO1` (stereo unspecified), for which the melting point is 110 to 111 °C. Next, `CCOP(=O)(/C=C/c1ccc2cc(NC(=O)C(NC(=O)OC(C)(C)C)C(C)(C)C)cc(-c3cccc4ccccc34)c2n1)OCC` (stereo unspecified): 249 to 250 °C. Next, `CC(C)(C)OC(=O)NC[C@@H]1CNC(=O)O1`: 116 °C; `Cc1ccc2c(c1)c1c(n2C(=O)c2ccccc2)CCC(C(=O)O)C1` (stereo unspecified): 200 to 202 °C; `CCCCOc1cc(CN)cc(S(N)(=O)=O)c1Cc1ccccc1`: 176 to 179 °C. Next, `C=CCc1cc(F)ccc1OCCCN1CCC2(CC1)C(=O)NCN2c1ccccc1`: 110 to 113 °C; `CNC1c2ccccc2-c2[nH]c(=O)c3nccn3c21` (stereo unspecified): 184 °C.

Consider `CC(C)CC(NC(=O)C(NC(=O)OCc1ccccc1)C(C(=O)O)C(C)(C)C)C(=O)NC(CCCCNC(=O)OC(C)(C)C)C(=O)O` (stereo unspecified), for which the melting point fell in the range of 173 to 174 °C. Next, `CCCN(c1nc(-c2ccc(Cl)cc2Cl)c(C)s1)C(c1ccccc1)C1CC1` (stereo unspecified): 78 to 81 °C; `CC(C)(C)n1cc(-c2ccc(I)cc2)c(C#N)c1N`: 166 to 167 °C. As for `C=CCOc1c(OC)cc([C@H]2CC[C@H](c3cc(OC)c(OC)c(OC)c3)O2)cc1S(C)(=O)=O` (relative stereo), the figure is 97 to 98 °C.

Molecule `CCOC(=O)c1nn(-c2ccccc2)c2c1CCCc1ccccc1-2` showed a melting point of 110 to 111 °C. Next, `CN1CCN(Cc2ccc3n2Cc2ccccc2SC3c2ccccc2)CC1` (stereo unspecified): 161 to 162 °C; `CNC(=O)OCc1c(COC(=O)NC)c2n(c1C)Cc1ccccc1C2`: 174 to 176 °C; `C=Cn1cc(C(=O)O)c(=O)c2cnc(N3CCN(C)CC3)nc21`: 233 to 234 °C. Regarding `CCCCC(=O)C(Cc1ccc(C#N)cc1)c1ccccc1` (stereo unspecified), the melting point worked out at 70 °C.

With `CN1CCCCC1CCc1ccccc1NC(=O)c1ccc(F)cc1` (stereo unspecified), the melting point stood at 116 °C. As for `CCCCCNc1nc2ccccc2n1C1CCN(C2(c3ccccc3)CCCCCC2)CC1`, the figure is 156 to 159 °C; as for `O=Cc1ccnc2ccc(-c3ccccc3)cc12`, 115 °C.

`CC(=O)OCC1OC(n2c(=O)sc3c(Cl)nc(Cl)nc32)C(OC(C)=O)C1OC(C)=O` (stereo unspecified) returned a melting point of 125 to 126 °C. As for `CC(=O)c1nc2ccc(OCC(F)(F)C(F)F)cc2cc1O`, the figure is 119 to 121 °C.

`CN1Cc2c(C(=O)OCC3CC3)ncn2-c2ccc(F)cc2C1=O`: the melting point was 156 to 157 °C.

On to `Cc1cccc(CN2CCCN(C)C(=O)[C@H]2NC(=O)OCc2ccccc2)c1`, for which the melting point was 70 to 71 °C. As for `Cn1c2ccccc2c(=O)c2c([N+](=O)[O-])cccc21`, the figure is 308 to 309 °C. As for `Nc1nc(N)c(C=O)c(OCC2CCCCC2)n1`, the figure is 159 to 160 °C.

As to `N#Cc1nn(-c2c(Cl)cc(C(F)(F)F)cc2Cl)c(N)c1C=O`, the melting point is 194 to 197 °C.

Values taken from a melting point compilation (Tetko et al.; mined from patent text by program, amines drawn as free bases though some values may be those of a salt).
